Laboratory results reported in patent US10906904B2, “ADO-resistant cysteamine analogs and uses thereof” (HORIZON ORPHAN LLC, priority 2015, dated 2021).
Read-outs that look alike come from different tables or passages of the source.

What was measured:
Cystine reactivity assay [1] = settings: Table 4
Cystine reactivity assay [2] = experiment: Cystine reactivity assay; design: Cystine Reactivity: unit not given here; settings: for Cystine Reactivity Assay (30° C.) (%) Mean Value: percentage of 3 mM cysteamine; for Cystine Reactivity: Tables 1-3
Outline: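 3 mM test compound incubated with 100 nM BODIPY FL L-cystine in phosphate buffer, pH 7.4, 30 °C; S–S cleavage relieves quenching, raising fluorescence. Rate taken as slope (RFU/min) of linear fit over time, expressed as percentage of 3 mM cysteamine.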

human recombinant ADO = biological target: T1, human recombinant ADO (Homo sapiens, UniProt Q96SZ5); format: in vitro ADME
T1 sequence (Q96SZ5 1-270): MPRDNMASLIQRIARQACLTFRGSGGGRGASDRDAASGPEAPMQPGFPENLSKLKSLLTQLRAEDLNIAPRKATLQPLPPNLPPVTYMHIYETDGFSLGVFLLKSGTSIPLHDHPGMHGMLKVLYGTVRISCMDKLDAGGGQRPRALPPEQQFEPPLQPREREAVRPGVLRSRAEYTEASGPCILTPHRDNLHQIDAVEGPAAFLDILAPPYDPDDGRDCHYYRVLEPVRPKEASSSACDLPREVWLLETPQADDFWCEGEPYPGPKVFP
Outline: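 Test compound (15 mM) incubated with 60 μg/ml human recombinant ADO and 20 nM O2-sensitive fluorescent probe at 37 °C in sealed chamber. Initial rate of fluorescence increase (ex 380/em 650 nm) gave oxygen consumption, expressed relative to 15 mM cysteamine.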

[3] = tested on: cystinotic human fibroblasts; experiment: Cystine depletion assay; format: cell-based; settings: for Emax: Homo sapiens, Fibroblast, 1 h; for cystine depletion levels (in words): compared to cysteamine; for Cystine depletion: compound at 50 μM or 100 μM, Tables 1-3
Outline: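 Cystinotic human fibroblasts treated with compound at 50 μM or 100 μM for 60 min at 37° C. After homogenisation and acid protein precipitation, cystine measured by HILIC LC-MS/MS and normalised to protein. Depletion expressed as percent of that achieved by cysteamine at similar concentration.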

St-HdhQ^111/111 cells = experiment: Glutamate-induced neuronal excitotoxicity assay; format: cell-based; settings: for HdhQ^111/111 cell % survival (mean ± STD) Test Conc. 10 μM / HdhQ^111/111 cell % survival (mean ± STD) Test Conc. 100 μM / viability at 10 µM / viability at 100 µM: 6 mM L-glutamate 24 hours, % of effect of 100 μM cysteamine; for viability at 10 µM / viability at 100 µM: STHdhQ111; for viability at 10 µM: read-out: HdhQ^111/111 cell % survival (mean ± STD) Test Conc. 10 μM; for viability at 100 µM: read-out: HdhQ^111/111 cell % survival (mean ± STD) Test Conc. 100 μM
Description: The ability of test compounds to inhibit glutamate-induced excitotoxicity (neuroprotection) in St-HdhQ^111/111 cells was determined by incubating compounds with cells for 60 min at 33° C., 95% (v:v) air/5% (v:v) CO2 in Dulbecco's Modified Eagle Media. Following this, excitotoxicity was induced by the addition of 6 mM L-glutamate for 24 hours. Cell viability was assessed by measuring ATP levels using a luminescent-based CellTitre Glo assay (Promega). Compound neuroprotection (% cell survival) was expressed as a % of the effect recorded with 100 μM cysteamine (denoted as 100% cell survival).

[4] = Dimethyl sulfide (DMS) detection in rat whole blood following oral compound administration; format: in vivo
Description: Male Sprague Dawley (SD) rats (200-250 g) were housed in cages under a 12 hour light/dark cycle with free access to food and water. Temperature and humidity were controlled according to UK Home Office regulations. For oral (po) administration, test compounds were formulated in water at a concentration of 30 mg/mL, to provide a dose of 150 mg/kg when administered orally in a 5 mL/kg dosing volume. Following compound or water (vehicle) administration to rats (n=15 per compound), terminal blood samples (>5 mL) were taken by cardiac puncture under CO2 at defined time-points post oral dosing (pre-dose, 0.25 hour, 0.5 hour, 1 hour and 2 hour). Blood was placed in sealed heparinized Eppendorf tubes on wet ice and stored at 4° C. prior to analyzing DMS levels by gas chromatography (GC).
For each sample of rat blood, 1 mL was added to an evacuated 20 mL GC-Headspace vial containing tetrahydrofuran (THF) internal standard. Headspace vials were sealed with a crimp cap and septum (to prevent the vaporization of volatile sulfur compounds into the open air) and thoroughly vortex mixed. All samples were processed using gas chromatography to measure DMS levels. In short, sulfur containing compounds were thermally liberated into the gas carrier stream and injected (1 μL) into the gas chromatography column (30 m×0.32 mm DB-624 1.8 μm). Under these conditions, the retention time for dimethyl sulfide (DMS) and THF internal standard were approximately 1.83 minutes and 3.82 minutes respectively.
For each analyzed blood sample, the ratio of DMS peak area to THF peak area was calculated. For the DMS calibration curve and assay linearity checks, this ratio was graphically plotted against the concentration of reference DMS standards (blank, 60 nM, 180 nM, 360 nM, 600 nM, 1200 nM, 1800 nM and 3000 nM). The concentration of DMS in each blood sample was calculated from the equation produced by this plot by linear regression analysis. […].

[5] = Rodent pharmacokinetic assay (mouse)
Description: (§1) Pharmacokinetic parameters of a test compound in a rodent species (mouse and/or rat) were determined by administering a test compound at 2 and 10 mg free base equivalents per kg via the intravenous and oral gavage route to groups of three animals per route.
(§2) Blood samples were taken at various times after administration, plasma prepared, and submitted to analysis for parent drug using a qualified LC-MS-MS assay. Pharmacokinetics parameters derived from the plasma analytical data were determined using non-compartmental analysis.

[6] = Rodent pharmacokinetic assay (rat); format: in vivo; settings: 2 and 10 mg free base equivalents per kg, intravenous and oral gavage
Description: as §1, §2

[7] = tested on: cryopreserved rat hepatocytes; experiment: Rat hepatocyte stability assay
Description: Rat hepatocytes were used to model in vivo hepatic clearance of the compounds by the ADO enzyme. Briefly, a Hepatocyte Stability Assay was carried out using cryopreserved rat hepatocytes.

[8] = Table 4, relative to cystine depletion by cysteamine (100%) at a similar concentration, read-out: Cystine Depletion (%)
[9] = Table 4, relative to cystine depletion by cysteamine (100%) at a similar concentration
[10] = male, Sprague Dawley, rat, in vivo, po, 150 mg/kg, 1 h
[11] = male, Sprague Dawley, rat, in vivo, po, 150 mg/kg, 2 h
[12] = Table 4, relative to 15 mM cysteamine
[13] = 2 and 10 mg free base equivalents per kg, intravenous and oral gavage
[14] = Table 5, relative to cystine depletion by cysteamine (100%) at a similar concentration, read-out: Cystine Depletion (%) Mean Value

CN1CCC(S)CC1 [Compound 17521]
Cystine Reactivity Assay (RT) (RFU) Mean Value (Cystine reactivity assay [1]): 4000-9000 RFU | Cystine Reactivity Assay (30° C.) (%) Mean Value (Cystine reactivity assay [2]; Table 4): 50-90% | ADO Metabolism Assay (%) Mean Value (human recombinant ADO; human, 15 mM): <25% | Emax [3, 8]: 79%

SCCc1ccncc1 [Compound 17522]
Cystine Reactivity Assay (RT) (RFU) Mean Value (Cystine reactivity assay [1]): <4000 RFU | ADO Metabolism Assay (%) Mean Value (human recombinant ADO; human, 15 mM): <25% | Emax [3, 8]: 6%

SC1CNC1 [Compound 41446]
HdhQ^111/111 cell % survival (mean ± STD) Test Conc. 10 μM (St-HdhQ^111/111 cells): 6 ± 9% | HdhQ^111/111 cell % survival (mean ± STD) Test Conc. 100 μM (St-HdhQ^111/111 cells): 101 ± 11% | Cystine Reactivity Assay (30° C.) (%) Mean Value (Cystine reactivity assay [2]; Table 5): >90% | Mean DMS levels (nM) ± STD, Time 1 hr ([4]; rat, in vivo, po, 150 mg/kg): <60 nM | Mean DMS levels (nM) ± STD, Time 2 hr ([4]; rat, in vivo, po, 150 mg/kg): <60 nM | Cystine Depletion (%) [3, 9]: 82% | Cystine Depletion (%) Mean Value ([3]; Table 5, relative to cystine depletion by cysteamine (100%) at a similar concentration): 82%

SC1CCNCC1 [Compound 41188]
viability at 10 µM (St-HdhQ^111/111 cells): 20 ± 6% | viability at 100 µM (St-HdhQ^111/111 cells): 105 ± 11% | Cystine Reactivity Assay (30° C.) (%) Mean Value (Cystine reactivity assay [2]; Table 4): 59-90% | ADO Metabolism Assay (%) Mean Value (human recombinant ADO; human, 15 mM): <25% | Mean DMS levels (nM) ± STD, Time 1 hr [4, 10]: <60 nM | Mean DMS levels (nM) ± STD, Time 2 hr [4, 11]: <60 nM | Emax [3, 8]: 87%

NCCCS [Compound 17329]
Cystine Reactivity Assay (RT) (RFU) Mean Value (Cystine reactivity assay [1]): <4000 RFU | Cystine Depletion (%) [3, 9]: 36%

CC(N)CS (centres unmarked) [Compound 17515]
Cystine Reactivity Assay (RT) (RFU) Mean Value (Cystine reactivity assay [1]): 4000-9000 RFU | Cystine Depletion (%) [3, 9]: 97%

SCCN1CCCC1 [Compound 17518]
Cystine Reactivity Assay (RT) (RFU) Mean Value (Cystine reactivity assay [1]): >9000 RFU | ADO Metabolism Assay (%) Mean Value (human recombinant ADO; [12]): <25% | Emax [3, 8]: 99%

SC1CCNCC1 [Compound 2c]
half-life ([5]; plasma, 10 mg): 7.1 h | bioavailability ([5]; plasma, oral, 10 mg): 74% | metabolism by ADO compared to cysteamine (in words) (human recombinant ADO): significantly reduced metabolism by ADO compared to cysteamine | ADO metabolism (human recombinant ADO; human, 15 mM): 2% | cystine depletion levels (in words) [3]: slightly decreased | Cystine depletion [3]: 73%

NCCS [Cysteamine]
HdhQ^111/111 cell % survival (mean ± STD) Test Conc. 10 μM (St-HdhQ^111/111 cells): 20 ± 6% | HdhQ^111/111 cell % survival (mean ± STD) Test Conc. 100 μM (St-HdhQ^111/111 cells): 105 ± 13% | inhibition of glutamate-induced excitotoxicity / cell survival (in words) (St-HdhQ^111/111 cells; St-HdhQ^111/111 cells): capable of inhibiting glutamate-induced excitotoxicity | Cystine Reactivity Assay (RT) (RFU) Mean Value (Cystine reactivity assay [1]): 4000-9000 RFU | Mouse PK Bioavailability [5, 13]: 33% | Mouse PK-Half life [5, 13]: 2.4 h | Cystine Reactivity Assay (30° C.) (%) Mean Value (Cystine reactivity assay [2]; Table 4): >90% | Cystine Reactivity (Cystine reactivity assay [2]): 6543 | Rat PK Bioavailability [6]: 62% | Rat PK-Half life [6]: 0.5 h | Rat Hepatocytes CLint [7]: 33700 µL/min/mg | ADO Metabolism Assay (%) Mean Value (human recombinant ADO; [12]): >75% | ADO metabolism (human recombinant ADO; relative to 15 mM cysteamine, Tables 1-3): 111% | Mean DMS levels (nM) ± STD, Time 0.5 hr ([4]; rat whole blood, 150 mg/kg po, 0.5 hr): 1097 ± 418 nM | Mean DMS levels (nM) ± STD, Time 1 hr ([4]; rat whole blood, 150 mg/kg po, 1 hr): 1162 ± 373 nM | Mean DMS levels (nM) ± STD, Time 2 hr ([4]; rat whole blood, 150 mg/kg po, 2 hr): 1437 ± 334 nM | Mean DMS levels (nM) ± STD, Time […] ([4]; rat whole blood, 150 mg/kg po, […]): 641 ± 324 nM | Cystine Depletion (%) [3, 9]: 100% | Cystine depletion [3]: 101% | Cystine depletion ( ) = disulfide efficacy ([3]; disulfide of the compound, 50 μM or 100 μM): (106%)

CC(C)(S)CN [Compound 18782]
Cystine Reactivity Assay (RT) (RFU) Mean Value (Cystine reactivity assay [1]): <4000 RFU | ADO Metabolism Assay (%) Mean Value (human recombinant ADO; human, 15 mM): <25% | Mean DMS levels (nM) ± STD, Time 1 hr [4, 10]: <60 nM | Mean DMS levels (nM) ± STD, Time 2 hr [4, 11]: <60 nM | Emax [3, 8]: 32%

CC(S)CN (centres unmarked) [Compound 17330]
Cystine Reactivity Assay (RT) (RFU) Mean Value (Cystine reactivity assay [1]): 4000-9000 RFU

CC1(S)CCNCC1 [Compound 42341]
viability at 10 µM (St-HdhQ^111/111 cells): 1 ± 10% | viability at 100 µM (St-HdhQ^111/111 cells): 55 ± 21% | Cystine Reactivity Assay (30° C.) (%) Mean Value (Cystine reactivity assay [2]; Table 4): <50% | Cystine Reactivity Assay (30° C.) (%) Mean Value (Cystine reactivity assay [2]; Table 5): <50% | ADO Metabolism Assay (%) Mean Value (human recombinant ADO; human, 15 mM): <25% | Mean DMS levels (nM) ± STD, Time 0.5 hr ([4]; male, Sprague Dawley, rat, in vivo, po, 150 mg/kg, 0.5 h): <60 nM | Mean DMS levels (nM) ± STD, Time 1 hr [4, 10]: <60 nM | Mean DMS levels (nM) ± STD, Time 2 hr [4, 11]: <60 nM | Emax [3, 8]: 81% | Emax [3, 14]: 83%

CC(=O)NCCS [Compound 17287]
Cystine Reactivity Assay (RT) (RFU) Mean Value (Cystine reactivity assay [1]): <4000 RFU | ADO Metabolism Assay (%) Mean Value (human recombinant ADO; human, 15 mM): <25%

SCCN1CCOCC1 [Compound 17328]
Cystine Reactivity Assay (RT) (RFU) Mean Value (Cystine reactivity assay [1]): <4000 RFU | ADO Metabolism Assay (%) Mean Value (human recombinant ADO; human, 15 mM): <25% | Emax [3, 8]: 13%

CC(N)CS (centres unmarked) [Compound 3c]
Cystine Reactivity (Cystine reactivity assay [2]): 7733 | reactivity with cystine compared to cysteamine (in words) (Cystine reactivity assay [2]; text summary of Tables 1-3): increased reactivity with cystine compared to cysteamine | Rat PK Bioavailability [6]: 23% | Rat PK-Half life [6]: 0.8 h | Rat Hepatocytes CLint [7]: 29500 µL/min/mg | metabolism by ADO compared to cysteamine (in words) (human recombinant ADO): significantly reduced metabolism by ADO compared to cysteamine | cystine depletion levels (in words) [3]: similar | Cystine depletion [3]: 97%

SC[C@@H]1CCCN1 (stereo in doubt) [Compound 42210]
viability at 10 µM (St-HdhQ^111/111 cells): 7 ± 6% | viability at 100 µM (St-HdhQ^111/111 cells): 105 ± 8% | Cystine Reactivity Assay (30° C.) (%) Mean Value (Cystine reactivity assay [2]; Table 4): >90% | Cystine Reactivity Assay (30° C.) (%) Mean Value (Cystine reactivity assay [2]; Table 5): >90% | ADO Metabolism Assay (%) Mean Value (human recombinant ADO; human, 15 mM): <25% | Mean DMS levels (nM) ± STD, Time 1 hr [4, 10]: <60 nM | Mean DMS levels (nM) ± STD, Time 2 hr [4, 11]: <60 nM | Emax [3, 8]: 87% | Emax [3, 14]: 89%
